Reference: US5753656A, “Method for treating spinocerebellar degeneration” (Suntory Limited, priority 1994, dated 1998)
“Also recorded” adds a separate entry of the source. Counter-ions that a name gives are not always drawn.

Experiments:
[1] = Acute oral toxicity (LD50) in rats; format: in vivo
Excerpt: As the active ingredients provided by the present invention for treatment of spinocerebellar degeneration, (6R)-L-erythro-5,6,7,8-tetrahydrobiopterin (BH4) and its salts are most preferable, but analogous compounds such as (6R,S)-5,6,7,8-tetrahydrobiopterin, 1',2'-diacetyl-5, 6,7,8-tetrahydrobiopterin, sepiapterin, 6-methyl-5,6,7,8-tetrahydropterin or 6-phenyl-5,6,7,8-tetrahydropterin and their salts may also be acceptable. However, needless to say, BH4 which naturally exists in the body is preferable. […] The other compounds belonging to formula (I) likewise have little or no acute toxicity.

[2] = KOKAI No. 25323/84; cited from earlier work
[3] = system: Machado-Joseph disease (patients); assay: Double-blind crossover trial of BH4: subjective improvement; format: in vivo, humans; details: 1 mg/kg once daily, 10 days
Protocol: (§1) To 5 patients with Machado-Joseph disease listed in Table 1, a placebo (ascorbic acid) and BH4 were administered in a double-blind clinical trial with the procedure as follows:
(§2) Three patients from three families diagnosed as "clinically definite family" and two patients from two families diagnosed as "probable family" according to the diagnostic criteria by Sakai (Sakai, T., ditto) were selected.
(§3) The patients received 1 mg/kg(b.w.) of BH4 or ascorbic acid in capsules once daily, after lunch. The chemical form of BH4 given was BH4 dihydrochloride in Cases 1 to 3 and 5 and (6R,S)-L-erythro-5, 6,7,8-tetrahydrobiopterin dihydrochloride in Case 4.
Each patient was asked with respect to six symptomatic parameters: dysarthria, dysphagia, disturbance of dexterity, disturbance of stationary balance on standing, disturbance of gait, and overall sense of general well-being.
(§4) A double-blind, placebo-controlled crossover design was adopted.
(§5) Data were analyzed using paired t-test.

[4] = system: Machado-Joseph disease (patients); assay: Double-blind crossover trial of BH4: neurological examination; format: in vivo, humans; details: 1 mg/kg once daily, 10 days
Protocol: as §1, §2, §3
The examination was performed in respect of muscle tonus of the extremities, deep reflexes, severity of dystonia, disturbance of stationary balance on standing, finger-to-nose test, finger tapping test, diadochokinetic test, heel-to-knee tapping test, and dysarthria.
as §4, §5

[5] = system: Machado-Joseph disease (patients); assay: Double-blind crossover trial of BH4: overall conclusion on neurologic symptoms; format: in vivo, humans; details: 1 mg/kg once daily, 10 days, oral capsules
Protocol: as §1, §2, §3
Each patient was assessed by the following three methods:
as §4, §5

C[C@H](O)[C@H](O)[C@H]1CNc2nc(N)[nH]c(=O)c2N1 [BH4 dihydrochloride]
Acute oral toxicity, assessment in words [1]: practically non-toxic | LD50 ([1]; rat, in vivo): > 2000 mg/kg

C[C@H](O)[C@H](O)C1CNc2nc(N)[nH]c(=O)c2N1 (stereo partly drawn) [(6R,S)-5,6,7,8-tetrahydrobiopterin]
Toxicity as seen in the treatment of patients with Parkinson disease [2]: only slightly toxic

C[C@H](O)[C@H](O)[C@H]1CNc2nc(N)[nH]c(=O)c2N1 [BH4, (6R)-L-erythro-5,6,7,8-tetrahydrobiopterin]
Subjective symptoms, overall result [3]: none showed a statistically significant improvement | Neurological parameters, overall result [4]: none exhibited a statistically significant improvement | Effect on neurologic symptoms of Machado-Joseph disease, conclusion [5]: remarkable therapeutic efficacy; also recorded: effective in improving neurologic symptoms | Effect on neurologic symptoms of Machado-Joseph disease, conclusion ([5]; listed as tetrahydrobiopterin): remarkable amelioration of the neurologic symptoms
